Measured values reported in patent US20260325481A1, “THERAPY SELECTION AND TREATMENT OF NEURODEGENERATIVE DISORDERS” (Anavex Life Sciences Corp., priority 2022, published 2026).

Tested on: patients with Parkinson's Disease with Dementia (PDD)
Assay: ANAVEX 2-73-PDD-001 Phase 2 study (randomized, double blind, placebo-controlled) in Parkinson's Disease with Dementia
Type: in vivo, human
Method: In order to assess the safety, tolerability and efficacy of ANAVEX® 2-73 (blarcamesine) oral capsules in treating cognitive impairment in patients with Parkinson's Disease with Dementia (PDD), a phase 2 study, coded “ANAVEX® 2-73-PDD-001 study” (FIG. 1), was conducted. The study was multi-center, randomized, double blind, placebo-controlled, parallel group with 3-arm. The study included a 2-week Screening/Baseline Observation Period and a 14-week Treatment Period (including a 2 week Titration Period), and a 2-week Safety Follow-Up Period. A total of 132 patients were enrolled in the study and were randomly assigned to three testing arms (FIG. 1). In ANAVEX2-73 High Dose arm, 44 patients were given oral capsules of ANAVEX2-73 once daily in an escalating dose of 10 mg, 20 mg, 30 mg and 50 mg. In ANAVEX2-73 Mid Dose arm, 44 patients were given oral capsules of ANAVEX2-73 once daily in an escalating dose of 10 mg, 20 mg, and 30 mg. In placebo group, 44 patients were given placebo capsules. Outcome measures included Cognitive Drug Research (CDR) Computerized Assessment System on Continuity of Attention; Change from Baseline to End of Treatment in Continuity of Attention as measured by Cognitive Drug Research (CDR) Computerized Assessment System Continuity of Attention; Number of participants with treatment-related adverse events as assessed by CTCAE v4.0 [Time Frame: 14 weeks]; Assessment of the safety and tolerability of ANAVEX2-73 compared to placebo; MDS-UPDRS Part III Total Score (Motor Scores); Change from baseline to End of Treatment as measured by MDS-UPDRS Part III Total Score (Motor Scores); SDS-CL-25 [Time Frame: 14 weeks]; Incidence of sleep disorders symptoms (SDS-CL-25); and DNA/RNA Sequencing. Since MDS-UPDRS is indicative of the motor activity for Parkinson Disease (PD), the trial can also identify the effects of ANAVEX® 2-73 on PD patients.
The trial enrolled 132 adults, ages 50-85, with PDD, and was successfully concluded in September 2020. Participants, recruited at multiple sites in Spain and Australia, were randomly assigned to one of two doses groups (with an escalating ANAVEX 2-73 dose up to 30 or 50 mg oral capsules) or to a placebo, once daily for 14 weeks (see FIG. 1 for details). The trial's main goals were to assess the therapy's safety and changes in patients' cognitive function, measured using the cognitive drug research computerized assessment system—a test that looks at multiple cognitive skills, such as choice reaction time (choosing between similar objects), vigilance, and episodic memory (remembering new personal experiences or shared information). Secondary goals included changes in patients' motor abilities—assessed with the Movement Disorders Society Unified Parkinson's Disease Rating Scale (MDS-UPDRS) Part III—and sleep quality. […] This sleep disorder is associated with greater cognitive impairment and a higher risk of dementia. […] After 14 weeks, the MDS-UPDRS total score dropped by 10.98 points (indicating an easing in disease severity) in the high-dose group and rose by 3.53 points in the placebo group. This represented an adjusted mean improvement of 14.51 points—surpassing the established, clinically meaningful 7.1 point-cut-off—and a relative improvement of 18.9% over 14 weeks. These findings highlight ANAVEX 2-73's ability to not only slow, but also reverse, symptoms that progress in Parkinson's disease, potentially fulfilling an urgent unmet medical need, Anavex stated in its release. […] After completing the PDD-001 trial, patients had the option of being treated with ANAVEX 2-73 for nearly one year in its extension study, called ANAVEX 2-73-PDD-EP-001 (NCT04575259).
Randomized, placebo-controlled clinical trial in 132 patients with Parkinson's disease with dementia (PDD) included prespecified biomarkers of response as well as Whole Exome Sequencing DNA data and full RNA exome expression data collection. […]

SMILES: CN(C)CC1CCOC1(c1ccccc1)c1ccccc1.Cl (centres unmarked) [ANAVEX2-73, tetrahydro-N,N-dimethyl-2,2-diphenyl-3-furanmethanamine hydrochloride]
- Dementia assessment, Quality of Episodic Memory (14-week trial, oral): dose-dependent, statistically significant improvement
- REM sleep behavior disorder (14 weeks, previously reported results, confirmed): lessened REM sleep behavior disorder
- Cognitive skills (CDR computerized assessment system, 14 weeks, previously reported results, confirmed): significantly improved several cognitive skills
- MDS-UPDRS Part II response (MS4A4A Wild Type rs6591561 cohort (excluding rs6591561 homozygous mutation carriers)): strongest response
- Response depending on patients' MS4A4A (rs6591561) carrier status (PDD-001 study): Different ANAVEX® 2-73 response
- Motor and non-motor Parkinson's symptoms (MDS-UPDRS total score) (high dose (50 mg) once daily oral, 14 weeks): statistically significant and clinically meaningful reductions
- Parkinson's assessment, MDS-UPDRS Total score (high oral dose once daily, 14-week trial): significant improvement
- Safety (oral capsules once daily up to 30 or 50 mg, 14 weeks, previously reported results): generally safe
